Laboratory results published in US20260139017A1, “COMPOSITIONS AND METHODS USING REELIN IN ALZHEIMER'S DISEASE” (The General Hospital Corporation, priority 2022, published 2026).

Key:
[1] = molecular target: T1, APOER2 (Homo sapiens, UniProt Q14114); test: ELISA cell-free binding of RELN variants to ApoEr2
T1 construct: purchased OnGene (so in the source)
T1 sequence (Q14114 33-963): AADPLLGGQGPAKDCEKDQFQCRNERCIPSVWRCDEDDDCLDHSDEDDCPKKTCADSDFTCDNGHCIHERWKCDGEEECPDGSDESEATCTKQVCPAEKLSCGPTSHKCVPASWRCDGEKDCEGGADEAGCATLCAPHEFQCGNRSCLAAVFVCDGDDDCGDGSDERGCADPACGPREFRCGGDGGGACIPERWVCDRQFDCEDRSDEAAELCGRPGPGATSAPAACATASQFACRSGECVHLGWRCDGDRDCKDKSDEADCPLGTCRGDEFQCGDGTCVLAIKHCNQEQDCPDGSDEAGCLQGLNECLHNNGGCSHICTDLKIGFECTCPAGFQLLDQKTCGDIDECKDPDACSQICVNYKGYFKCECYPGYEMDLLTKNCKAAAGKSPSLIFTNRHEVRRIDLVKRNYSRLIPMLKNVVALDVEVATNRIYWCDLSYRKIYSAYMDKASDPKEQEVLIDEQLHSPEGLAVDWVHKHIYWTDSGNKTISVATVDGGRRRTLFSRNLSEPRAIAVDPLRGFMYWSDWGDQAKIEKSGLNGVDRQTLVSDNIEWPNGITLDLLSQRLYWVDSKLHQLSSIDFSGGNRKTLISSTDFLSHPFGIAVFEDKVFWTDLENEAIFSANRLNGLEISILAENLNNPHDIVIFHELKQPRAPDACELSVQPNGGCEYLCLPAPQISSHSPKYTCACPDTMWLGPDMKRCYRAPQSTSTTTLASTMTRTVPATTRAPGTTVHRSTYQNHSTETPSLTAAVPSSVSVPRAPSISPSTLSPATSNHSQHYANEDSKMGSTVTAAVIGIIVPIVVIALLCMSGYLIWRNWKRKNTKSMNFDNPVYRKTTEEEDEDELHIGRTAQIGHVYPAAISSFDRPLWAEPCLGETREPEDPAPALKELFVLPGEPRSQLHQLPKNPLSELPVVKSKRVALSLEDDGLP
Procedure: (§1) Enzyme-linked immunosorbent assay (ELISA) was used to quantify changes in binding of RELN variants (media-derived full-length or CTR-RELN) to either VLDLr or ApoEr2 following an optimized version of a previously published protocol (6). Briefly, ELISA strips (DY008, R&D Systems) were coated with one ng/μL (100 μL/well) of VLDLr (8444-VL, R&D) or ApoEr2 (TP320903, OnGene) receptors diluted in 25 mM Tris HCl, 140 mM NaCl, […], two mM CaCl2), pH 7.4 (TBS-C buffer). After 18 h at four ° C. incubation, plates were blocked one h with three % BSA (22070008-6, Bioworld), 0.05% Tween-20 (Sigma Aldrich) TBS-C buffer. We assessed binding via incubation with 100 μL/well of serial dilutions of recombinant RELN protein (Ser1221-Gln2666, 8546-MR-050, R&D) or RELN variants in TBS-C buffer for one hour at room temperature. For detection, we used goat anti-mouse RELN primary antibody (LS-C793521-100, LS-Bio, 1:2,000, 100 μL/well) as primary antibody for one h at R.T. and (1:10,000; 100 μL/well, donkey anti-goat IgG H&L, HRP, ab6885, Abcam) as secondary antibody for 30 min. at R.T. Between each of the previous steps, plates were washed four times with TBS-C buffer (200 μL/well). Plates were washed three times prior to initiating the colorimetric reaction (DY008, R&D Systems). Stop solution (50 μL/well, DY008, R&D Systems) was added upon five min. incubation and the absorbance of the samples was measured at 450 nm using the Synergy 2 microplate reader (BioTek Instruments). Processing and analysis of the data was done using Gen5 1.11 software and GraphPad Prism, respectively.

[2] = molecular target: T2, Aβ42 (Homo sapiens, UniProt P05067); test: Thioflavin T (ThT) Aβ aggregation assay; assay type: biochemical; details: Aβ42 55 μM, 10 μM peptide, vs Aβ alone
T2 construct: SensoLyte ThT O-Amyloid (1-42) Aggregation kit
T2 sequence (P05067 672-713 limits assumed): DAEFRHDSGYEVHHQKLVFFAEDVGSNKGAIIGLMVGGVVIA
Procedure: Therefore, the ThT assay can be used to quantify AB aggregation using previously developed methods (40).
We incubated CTR-RELN with Aβ and monitored aggregation using a ThioflavinT fluorescence assay normalized to the maximum ThT emission of Aβ only. We also assayed Aβ in the presence of morin, a known inhibitor (41), as a […]. Long and short WT and H3447R RELN CTR peptides were included to better understand the potential role of the H3447R mutation in amyloid pathology (FIGS. 14 and 15. Negative controls included long and short RELN CTR peptides with neutrally charged AAs (histidines) in place of basic AAs in the alpha- and beta-GAG binding sites.
A Thioflavin T (ThT) assay was also performed using synthetic Reelin peptides to assess the differential effects of these proteins on Aβ42 aggregation in vitro using Thioflavin T (SensoLyte ThT O-Amyloid (1-42) Aggregation kit, catalog no. ΔS-72214). Aβ42 was added to a final concentration of 55 μM in solutions of 10 μM of Reelin peptide variants in a transparent, no-binding 96-well plate. Samples were then mixed with 2 mM Thioflavin T dye and fluorescence was read at excitation wavelength/emission wavelength (Ex/Em)=440/484 nm at intermittent time intervals over 2 h. The plate was kept at 37° C. with 15 s shaking between reads. […] In general, it appears that the RELN Cterm domain is highly unstructured. […] If the mini-RELN includes the C-term domain only without a receptor binding domain then the protection will not involve signaling, but will still involve direct interactions with tau. If the mini-RELN includes the C-term domain and the receptor binding domain, it will have at least two protective mechanisms, namely RELN signaling and direct interactions with tau.

[3] = molecular target: T3, VLDLr (Homo sapiens, UniProt P98155); test: ELISA cell-free binding of RELN variants to VLDLr
T3 construct: purchased R&D 8444-VL
Procedure: as §1

## RKQNYMMNFSRQHGLRRFYNRRRRSLRRYP [CTR-RELN H3447R]
[1]
  binding to APOER2: unable to bind directly
[2]; listed as COLBOS variant
  Aβ aggregation (ThT fluorescence): enhanced this effect
[2]; listed as H3447R
  Aβ aggregation (ThT fluorescence): did not significantly affect Aβ aggregation compared to WT
[2]; listed as RELN H3447R
  Aβ aggregation (ThT fluorescence): similarly effective at inhibiting ThT aggregation as WT
[3]
  binding to VLDLr: unable to bind directly
